Data published in patent US11534412B2, “Application of totarol and pharmaceutical composition containing totarol” (Emergopharm SP. Z O.O. SP.K., priority 2017, dated 2022).

Test system: Lactobacillus gasseri - clinical strain
Test: Determination of the MIC value of totarol, broth dilution in 96-well plates with OD and quantitative culture
Format: cell-based
Conditions: for OD, average of 3 measurements / OD: 620 nm
Experimental: Test of antibacterial activity of totarol using DMI (dimethylisosorbide) as a solvent.
A suspension of 0.5 McF in physiological saline (suspension density 10^8 cfu/ml) was prepared from a 24-hour culture of a standard strain. 1 ml of the suspension was collected to 9 ml of a TSB broth ([…]). Suspensions with a dilution of 10^−6 were prepared in the described way. A suspension with a cell density of 10^5 cfu/ml was selected for further investigations. For each strain, 2 96-well plates were prepared: the first one was intended for the OD measurement, the second one—for quantitative culture on solid media. • A/ to wells B1-D1, B2-D2 and B-D 4-11, 100 µl of the broth were added; • B/ to wells B3-D3, 200 µl of the broth were added; • C/ to wells B1-D1, 1 µl of stock I was added; • D/ to wells B2-D2, 1 µl of stock II was added; • E/ to wells B3-D3, 2 µl of stock III were added. Using a multichannel pipette, 100 µl of the sample were collected from each of the B3-D3 wells and placed in wells B4-D4 (mixing by sucking the content in and letting it out for 5 times). The pipette tips were replaced and 100 µl of the content were collected from of the B4-D4 wells, and placed in wells B5-D5, mixing as previously. These operations were repeated through the wells B11-D11. The content in the B11-D11 wells was mixed, and 100 µl of the fluid were collected and discarded. This way, a series of dilutions of totarol samples in DMI in the range of 0.32% to 0.0004% was obtained. Then, 100 µl of a corresponding bacterial culture were added to the wells B, C, D 1-11. In consequence, a change in the final concentration range occurred, to 0.16%-0.0002%. Control Preparation: • Negative control: 100 µl of the broth+1 pl DMI were added to the Al well. • Positive control (I): 100 µl of the broth with the bacterial culture were added to the wells E1-G1. • Diluent positive control (II): 100 µl of the broth with the bacterial culture+1 pl DMI were added to the wells E2-G2. The OD value in the individual wells was read at the wavelength of 620 nm (read time 0). From the second 96-well plate, a culture was inoculated by a quantitative method from every dilution onto a well with a proper solid medium, and incubated for 24 h at 37° C. under aerobic or anaerobic conditions, depending on the strain. The plates were incubated under aerobic conditions or in an atmosphere of an elevated CO2 concentration (for the strains requiring it) in an incubator at 37° C. The OD was read after 8 h, 16 h, and 24 h, respectively. Before every OD measurement, the contents of the wells were mixed delicately. In parallel to the OD readout, cultures we inoculated from the second 96-well plate, from every dilution, into plates with a proper solid medium, and incubated for 24 h at 37° C., under aerobic or anaerobic conditions. For the analysis of the experimental results, an average value of the OD measurement obtained from three repetitions in the individual times (0, 8, 16, and 24 h) for the individual microbes (Gardnerella vaginalis, Streptococcus agalactiae, Enterococcus faecalis, Lactobacillus gasseri/plantarum) was taken. Additionally, the number of bacteria grown on solid media was taken into account. The results of the tests confirm the specific, concentration-dependent selectiveness, and the high antibacterial effectiveness of totarol against the pathogenic microorganisms: Gardnerella vaginalis, Streptococcus agalactiae, Enterococcus faecalis at low MIC values safe for bacteria of the Lactobacillus genus.

- MIC value (L. gasseri): 0.04%
Structure (SMILES): CC(C)c1c(O)ccc2c1CC[C@H]1C(C)(C)CCC[C@]21C [Totarol, totarol]
- Inoculation cfu/ml (totarol 0.0002%, 0 h): 3.1 × 10^5 cfu/ml
- OD, average of 3 measurements (totarol 0.0002%, 0 h): 0.299
- Inoculation cfu/ml (totarol 0.0002%, 8 h): 2.1 × 10^5 cfu/ml
- OD, average of 3 measurements (totarol 0.0002%, 8 h): 0.302
- Inoculation cfu/ml (totarol 0.0002%, 16 h): 5.9 × 10^6 cfu/ml
- OD, average of 3 measurements (totarol 0.0002%, 16 h): 0.897
- Inoculation cfu/ml (totarol 0.0002%, 24 h): 2.9 × 10^7 cfu/ml
- OD (totarol 0.0002%, 24 h): 1.492
- Inoculation cfu/ml (totarol 0.0004%, 0 h): 5.1 × 10^5 cfu/ml
- OD, average of 3 measurements (totarol 0.0004%, 0 h): 0.296
- Inoculation cfu/ml (totarol 0.0004%, 8 h): 2.1 × 10^5 cfu/ml
- OD, average of 3 measurements (totarol 0.0004%, 8 h): 0.306
- Inoculation cfu/ml (totarol 0.0004%, 16 h): 3.9 × 10^6 cfu/ml
- OD, average of 3 measurements (totarol 0.0004%, 16 h): 0.915
- Inoculation cfu/ml (totarol 0.0004%, 24 h): 3.2 × 10^7 cfu/ml
- OD (totarol 0.0004%, 24 h): 1.484
- Inoculation cfu/ml (totarol 0.0007%, 0 h): 1.7 × 10^5 cfu/ml
- OD, average of 3 measurements (totarol 0.0007%, 0 h): 0.289
- Inoculation cfu/ml (totarol 0.0007%, 8 h): 1.9 × 10^5 cfu/ml
- OD, average of 3 measurements (totarol 0.0007%, 8 h): 0.299
- Inoculation cfu/ml (totarol 0.0007%, 16 h): 3.6 × 10^6 cfu/ml
- OD, average of 3 measurements (totarol 0.0007%, 16 h): 0.879
- Inoculation cfu/ml (totarol 0.0007%, 24 h): 3 × 10^7 cfu/ml
- OD (totarol 0.0007%, 24 h): 1.458
- Inoculation cfu/ml (totarol 0.0013%, 0 h): 3.8 × 10^5 cfu/ml
- OD, average of 3 measurements (totarol 0.0013%, 0 h): 0.298
- Inoculation cfu/ml (totarol 0.0013%, 8 h): 1.8 × 10^5 cfu/ml
- OD, average of 3 measurements (totarol 0.0013%, 8 h): 0.301
- Inoculation cfu/ml (totarol 0.0013%, 16 h): 4.1 × 10^6 cfu/ml
- OD, average of 3 measurements (totarol 0.0013%, 16 h): 0.879
- Inoculation cfu/ml (totarol 0.0013%, 24 h): 2.1 × 10^7 cfu/ml
- OD (totarol 0.0013%, 24 h): 1.457
- Inoculation cfu/ml (totarol 0.0025%, 0 h): 4.5 × 10^5 cfu/ml
- OD, average of 3 measurements (totarol 0.0025%, 0 h): 0.285
- Inoculation cfu/ml (totarol 0.0025%, 8 h): 1.5 × 10^5 cfu/ml
- OD, average of 3 measurements (totarol 0.0025%, 8 h): 0.302
- Inoculation cfu/ml (totarol 0.0025%, 16 h): 2.3 × 10^6 cfu/ml
- OD, average of 3 measurements (totarol 0.0025%, 16 h): 0.880
- Inoculation cfu/ml (totarol 0.0025%, 24 h): 2.3 × 10^7 cfu/ml
- OD (totarol 0.0025%, 24 h): 1.459
- Inoculation cfu/ml (totarol 0.005%, 0 h): 1.2 × 10^5 cfu/ml
- OD, average of 3 measurements (totarol 0.005%, 0 h): 0.292
- Inoculation cfu/ml (totarol 0.005%, 8 h): 2 × 10^5 cfu/ml
- OD, average of 3 measurements (totarol 0.005%, 8 h): 0.300
- Inoculation cfu/ml (totarol 0.005%, 16 h): 9.1 × 10^6 cfu/ml
- OD, average of 3 measurements (totarol 0.005%, 16 h): 0.843
- Inoculation cfu/ml (totarol 0.005%, 24 h): 2.1 × 10^7 cfu/ml
- OD (totarol 0.005%, 24 h): 1.387
- Inoculation cfu/ml (totarol 0.01%, 0 h): 3.9 × 10^5 cfu/ml
- OD, average of 3 measurements (totarol 0.01%, 0 h): 0.301
- Inoculation cfu/ml (totarol 0.01%, 8 h): 7 × 10^4 cfu/ml
- OD, average of 3 measurements (totarol 0.01%, 8 h): 0.297
- Inoculation cfu/ml (totarol 0.01%, 16 h): 5.3 × 10^6 cfu/ml
- OD, average of 3 measurements (totarol 0.01%, 16 h): 0.799
- Inoculation cfu/ml (totarol 0.01%, 24 h): 1.3 × 10^7 cfu/ml
- OD (totarol 0.01%, 24 h): 1.301
- Inoculation cfu/ml (totarol 0.02%, 0 h): 1.4 × 10^5 cfu/ml
- OD, average of 3 measurements (totarol 0.02%, 0 h): 0.305
- Inoculation cfu/ml (totarol 0.02%, 8 h): 1.4 × 10^5 cfu/ml
- OD, average of 3 measurements (totarol 0.02%, 8 h): 0.299
- Inoculation cfu/ml (totarol 0.02%, 16 h): 2.1 × 10^5 cfu/ml
- OD, average of 3 measurements (totarol 0.02%, 16 h): 0.753
- Inoculation cfu/ml (totarol 0.02%, 24 h): 1 × 10^5 cfu/ml
- OD (totarol 0.02%, 24 h): 1.208
- Inoculation cfu/ml (totarol 0.04%, 0 h): 4.6 × 10^5 cfu/ml
- OD, average of 3 measurements (totarol 0.04%, 0 h): 0.352
- Inoculation cfu/ml (totarol 0.04%, 8 h): 6 × 10^4 cfu/ml
- OD, average of 3 measurements (totarol 0.04%, 8 h): 0.335
- Inoculation cfu/ml (totarol 0.04%, 16 h): 4.5 × 10^3 cfu/ml
- OD, average of 3 measurements (totarol 0.04%, 16 h): 0.342
- Inoculation cfu/ml (totarol 0.04%, 24 h): 5 × 10^3 cfu/ml
- OD (totarol 0.04%, 24 h): 0.349
- Inoculation cfu/ml (totarol 0.08%, 0 h): 2.9 × 10^5 cfu/ml
- OD, average of 3 measurements (totarol 0.08%, 0 h): 0.526
- Inoculation cfu/ml (totarol 0.08%, 8 h): 1 × 10^4 cfu/ml
- OD, average of 3 measurements (totarol 0.08%, 8 h): 0.409
- Inoculation cfu/ml (totarol 0.08%, 16 h): 1.9 × 10^2 cfu/ml
- OD, average of 3 measurements (totarol 0.08%, 16 h): 0.463
- Inoculation cfu/ml (totarol 0.08%, 24 h): 1.2 × 10^2 cfu/ml
- OD (totarol 0.08%, 24 h): 0.472
- Inoculation cfu/ml (totarol 0.16%, 0 h): 6.5 × 10^5 cfu/ml
- OD, average of 3 measurements (totarol 0.16%, 0 h): 0.427
- Inoculation cfu/ml (totarol 0.16%, 8 h): 2.5 × 10^4 cfu/ml
- OD, average of 3 measurements (totarol 0.16%, 8 h): 0.411
- Inoculation cfu/ml (totarol 0.16%, 16 h): 3.1 × 10^1 cfu/ml
- OD, average of 3 measurements (totarol 0.16%, 16 h): 0.409
- Inoculation cfu/ml (totarol 0.16%, 24 h): 1 × 10^1 cfu/ml
- OD (totarol 0.16%, 24 h): 0.406
